Earlier results on 58 compounds are cited in the CATMoS acute toxicity set (Mansouri et al. 2021).

Molecules are shown by their SMILES. Values joined by “and” are separate entries in the source; they are usually repeats but may differ in a detail not shown here. Identical values can stand only once. *1 amine or outer side, *2 acyl side, *3 side chain or, on linkers, in order; H or OH if unused. Where a SMILES comes first, the peptide text is derived from it. Bridges are numbered along the chain shown (N, C = ends). Roman numbers before positions name the chains, in order. [ ]: non-standard residue; d: D form. Actinocin(9to1) = Cc1c2oc3c(C)ccc(C(=O)[*:1])c3nc-2c(C(=O)[*:2])c(N)c1=O; NMeV = CN[C@H](C(=O)O)C(C)C; Sar = CNCC(=O)O

The nature of this data set: rat acute oral toxicity. The note with it: in vivo.
A word on the LD50: it is the dose expected to kill half of the subjects tested. In the case of `ClC1=C(Cl)C2(Cl)C3C(Br)C=CC3C1(Cl)C2(Cl)Cl` (stereo not drawn), the 50% lethal dose (LD50) is 1040 mg/kg.

As to `CCCCCCCCCCCCCCCCC[N+](C)(C)C`, the LD50 was 3650 mg/kg.

Turning to `CC(CC(=O)c1ccc(-c2ccc(F)cc2F)cc1)C(=O)O` (stereo not drawn), the LD50 is 134 mg/kg.

For the compound `O=c1oc(=O)c2cc3c(=O)oc(=O)c3cc12`, the median lethal dose (LD50) was 2250 mg/kg.

For `CCCCCC(=O)NP(=O)(OC)SC` (stereo not drawn), the LD50 is 25 mg/kg.

As for `Cc1ccnc(N)c1`, the 50% lethal dose (LD50) was 200 mg/kg.

Consider `Cc1c2oc3c(C)ccc(C(=O)N[C@@H]4C(=O)N[C@H](C(C)C)C(=O)N5CCC[C@H]5C(=O)N(C)CC(=O)N(C)[C@@H](C(C)C)C(=O)O[C@@H]4C)c3nc-2c(C(=O)N[C@@H]2C(=O)N[C@H](C(C)C)C(=O)N3CCC[C@H]3C(=O)N(C)CC(=O)N(C)[C@@H](C(C)C)C(=O)O[C@@H]2C)c(N)c1=O` (I: T[dV]P[Sar][NMeV] / II: T[dV]P[Sar][NMeV]; ester I:1-I:C, II:1-II:C; linker I:N-II:N via Actinocin(9to1)), for which the LD50 is 7.2 mg/kg.

Take `CN1CCC(=C2c3ccccc3C(O)c3ccccc32)CC1` (stereo not drawn): the LD50 was 135 mg/kg.

Regarding `O=C1C=CC[C@@H]2[C@H]3CCCN4CCC[C@@H](CN12)[C@@H]34`, the LD50 was 196 mg/kg.

In the case of `C=CCc1ccccc1`, the median lethal dose (LD50) is 5540 mg/kg.

For `CC(C)CCCCCc1ccc(O)cc1`, the LD50 is 2150 mg/kg.

Turning to `Cc1cc(OCCO)cc(C)c1Cl`, the LD50 was 3800 mg/kg.

Turning to `O=C(O)c1ccccc1C(=O)O`, the LD50 is 7900 mg/kg.

Regarding `O=C1NC(=O)C(=O)C(=O)N1`, the 50% lethal dose (LD50) is 5210 mg/kg.

Regarding `CC(C)C(=O)Nc1ccc([N+](=O)[O-])c(C(F)(F)F)c1`, the median lethal dose (LD50) is 787 mg/kg.

In the case of `COC(F)=C(C(F)(F)F)C(F)(F)F`, the LD50 was 1070 mg/kg.

For the compound `FC(F)(F)c1nc2c(Cl)c(Cl)c(Cl)c(Cl)c2[nH]1`, the LD50 is 0.245 mg/kg.

Turning to `O=C(O)CCCN1C(=O)c2cccc3cccc(c23)C1=O`, the LD50 was 4000 mg/kg.

In the case of `NC[C@@H]1O[C@H](O[C@H]2[C@@H](O)[C@H](O[C@@H]3[C@@H](O)[C@H](N)C[C@H](N)[C@H]3O[C@H]3O[C@H](CO)[C@@H](O)[C@H](O)[C@H]3N)O[C@@H]2CO)[C@H](N)[C@@H](O)[C@@H]1O`, the 50% lethal dose (LD50) was 21600 mg/kg.

For the compound `CCOc1ccc(-c2ccccc2)cc1CN1CCCC1`, the LD50 is 30 mg/kg.

As to `COC(F)(F)C(Cl)Cl`, the 50% lethal dose (LD50) was 3600 mg/kg.

For `CC(O)Cn1cnc2c1c(=O)n(C)c(=O)n2C` (stereo not drawn), the LD50 is 460 mg/kg.

For `CCC(C)CC(CC)Nc1ccc(NC(CC)CC(C)CC)cc1` (stereo not drawn), the LD50 was 2400 mg/kg.

In the case of `CC/C(=C(/CC)c1ccc(OP(=O)(O)O)cc1)c1ccc(OP(=O)(O)O)cc1`, the LD50 is 3000 mg/kg.

As for `CCCCC(O)c1ccccc1` (stereo not drawn), the LD50 was 5430 mg/kg.

Take `CCOP(=O)(Cc1ccc(-c2nc3ccccc3s2)cc1)OCC`: the LD50 is 1560 mg/kg.

On to `CC1(C)C(=O)N(Cl)C(=O)N1Cl`, for which the LD50 is 542 mg/kg.

On to `O=C(CCBr)N1CCN(C(=O)CCBr)CC1`, for which the LD50 was 220 mg/kg.

As for `COc1ccc2c(=O)c(C)c(C)oc2c1CN(C)C`, the median lethal dose (LD50) was 7.8 mg/kg.

`Cc1cc(=O)nc(C(C)C)[nH]1`: the LD50 is 2700 mg/kg.

For `CCCCOc1c(Cl)c(Cl)c(Cl)c(Cl)c1Cl`, the LD50 was 600 mg/kg.

As for `CCCCNc1ccccc1`, the median lethal dose (LD50) was 1620 mg/kg.

In the case of `C#CCN(C)C1CCc2ccccc21` (stereo not drawn), the LD50 is 250 mg/kg.

Regarding `C=CC(COC)c1ccccc1OC(=O)NC` (stereo not drawn), the median lethal dose (LD50) was 100 mg/kg.

In the case of `O=C1c2ccc3c4c(ccc(c24)C(=O)C1(Cl)Cl)CC3`, the LD50 was 10600 mg/kg.

`CC(C)(C)c1ccc2c(c1)C(C)(C)CC2`: the median lethal dose (LD50) is 15500 mg/kg.

Consider `CCCCOc1ccccc1NC(C)=O`, for which the median lethal dose (LD50) was 2900 mg/kg.

Regarding `O=C(Oc1ccccc1)c1ccccc1O`, the LD50 is 3000 mg/kg.

Regarding `CCOC(=O)c1ccccc1O`, the 50% lethal dose (LD50) is 1320 mg/kg.

Turning to `CCOP(=O)(OCC)SCn1nc(Cl)c(C)cc1=O`, the LD50 is 27 mg/kg.

For the compound `ClC(Cl)(Cl)c1ccc(C(Cl)(Cl)Cl)cc1`, the 50% lethal dose (LD50) is 3200 mg/kg.

Consider `CNC(=O)Oc1c(C(C)C)ccc(C)c1Cl`, for which the 50% lethal dose (LD50) was 250 mg/kg.

Consider `Oc1ccc(Cl)cc1Cc1ccccc1`, for which the 50% lethal dose (LD50) was 1700 mg/kg.

In the case of `Nc1ccc(C(F)(F)F)cc1`, the LD50 was 128 mg/kg.

On to `CN1CCCC(CC2c3ccccc3Sc3ccccc32)C1` (stereo not drawn), for which the LD50 is 1460 mg/kg.

As to `O=C(CCCN1CCC(n2c(=S)[nH]c3ccccc32)CC1)c1ccc(F)cc1`, the 50% lethal dose (LD50) was 232 mg/kg.

With `CN(C(=O)C[N+](C)(C)C)C(=O)Oc1cccc2c1OC(C)(C)C2`, the LD50 is 33.6 mg/kg.

Take `CCCCCCCCOP(OCC(CC)CCCC)Oc1ccccc1` (stereo not drawn): the LD50 was 7000 mg/kg.

Consider `CCOP(=S)(OCC)Oc1ccc(N)cc1`, for which the LD50 is 450 mg/kg.

With `CN(C)C(=O)SCCCCOc1ccccc1`, the LD50 was 1150 mg/kg.

As to `O=C(O)CCC(=O)OC[C@@H](NC(=O)C(Cl)Cl)[C@H](O)c1ccc([N+](=O)[O-])cc1`, the LD50 is 8300 mg/kg.

As for `CNC(=O)Oc1cccc2ccc(C)nc12`, the LD50 was 120 mg/kg.

Turning to `Cc1cc(Cl)ccc1Cn1nc(C(=O)O)c2ccccc21`, the 50% lethal dose (LD50) was 4000 mg/kg.

In the case of `O=C(Cc1ccccc1)OC1=C(OC(=O)Cc2ccccc2)C(=O)OC1=O`, the LD50 was 8000 mg/kg.

Regarding `CCOC(=O)[C@H](CCc1ccccc1)N[C@@H](C)C(=O)N1CCC[C@H]1C(=O)O`, the median lethal dose (LD50) is 2970 mg/kg.

For the compound `C[N+]1(CCC(O)(c2ccccc2)C2CCCCC2)CCCC1` (stereo not drawn), the median lethal dose (LD50) is 984 mg/kg and 985 mg/kg.

Regarding `CC/C=C\CCO`, the LD50 was 4700 mg/kg.

For `c1ccc(COCc2ccccc2)cc1`, the 50% lethal dose (LD50) is 2500 mg/kg.
